Experimental data taken from patent US7994140B2, “Classes of compounds that interact with GPCRs” (Alchemia Limited, priority 2002, dated 2011).

Experiments:
MC4 = target: T1, MC4 (Homo sapiens, UniProt P32245); test: GPCR radioligand binding (RLB) assay, melanocortin MC4, [125I]NDP-αMSH; conditions: 10 micromolar compound; recombinant human receptor membranes (HEK 293)
T1 construct: purchased Perkin Elmer BioSignal; host or cells: HEK 293
Outline: (§1)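 Membranes from HEK 293 cells expressing the recombinant human receptor were equilibrated with [125I]SST-14 (SST5) or [125I]NDP-αMSH (MC4), then compound added for an optimized incubation. Bound ligand separated by filtration on PEI-coated glass fiber and counted by liquid scintillation.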

SST5 = target: T2, SST5 (Homo sapiens, UniProt P35346); test: GPCR radioligand binding (RLB) assay, somatostatin SST5, [125I]SST-14; conditions: 10 micromolar compound; recombinant human receptor membranes (HEK 293)
T2 construct: purchased Perkin Elmer BioSignal; host or cells: HEK 293
T2 sequence (P35346 whole entry): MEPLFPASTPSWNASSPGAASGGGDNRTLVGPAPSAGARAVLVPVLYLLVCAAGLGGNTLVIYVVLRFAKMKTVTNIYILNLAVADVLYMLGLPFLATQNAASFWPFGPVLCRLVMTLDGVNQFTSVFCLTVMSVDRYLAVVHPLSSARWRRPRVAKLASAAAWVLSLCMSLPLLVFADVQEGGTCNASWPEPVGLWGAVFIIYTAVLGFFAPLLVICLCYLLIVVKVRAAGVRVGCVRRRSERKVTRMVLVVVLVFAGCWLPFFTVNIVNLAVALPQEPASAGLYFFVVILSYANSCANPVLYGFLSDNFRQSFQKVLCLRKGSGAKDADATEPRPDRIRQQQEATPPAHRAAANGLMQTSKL
Outline: as §1

T1 sequence (P32245 whole entry): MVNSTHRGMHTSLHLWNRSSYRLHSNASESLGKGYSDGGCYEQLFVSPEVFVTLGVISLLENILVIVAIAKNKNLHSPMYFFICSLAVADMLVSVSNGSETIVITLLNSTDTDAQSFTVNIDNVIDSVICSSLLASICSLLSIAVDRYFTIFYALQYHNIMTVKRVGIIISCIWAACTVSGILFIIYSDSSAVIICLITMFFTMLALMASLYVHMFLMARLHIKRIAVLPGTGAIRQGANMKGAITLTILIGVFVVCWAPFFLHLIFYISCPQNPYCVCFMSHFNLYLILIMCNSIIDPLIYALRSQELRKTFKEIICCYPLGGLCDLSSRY

CSC1OC(COCc2ccc3ccccc3c2)C(O)C(OCc2ccccc2)C1NC(=O)CCNC(=N)N (centres unmarked) [Compound 140]
MC4 inhibition at 10 micromolar (MC4): + (Indicates inhibition greater than . . . 50%)
SST5 inhibition at 10 micromolar (SST5): + (Indicates inhibition greater than . . . 50%)

CSC1OC(COCc2ccc3ccccc3c2)C(O)C(OCc2ccccc2)C1NC(=O)CCCN (centres unmarked) [Compound 141]
MC4 inhibition at 10 micromolar (MC4): + (Indicates inhibition greater than . . . 50%)
SST5 inhibition at 10 micromolar (SST5): + (Indicates inhibition greater than . . . 50%)

CSC1OC(COCc2ccc3ccccc3c2)C(O)C(OCc2ccccc2)C1NC(=O)CCCNC(=N)N (centres unmarked) [Compound 142]
MC4 inhibition at 10 micromolar (MC4): + (Indicates inhibition greater than . . . 50%)
SST5 inhibition at 10 micromolar (SST5): + (Indicates inhibition greater than . . . 50%)

CSC1OC(COCc2ccccc2)C(O)C(OCc2ccc(Cl)cc2)C1NC(=O)CNC(=N)N (centres unmarked) [Compound 144]
MC4 inhibition at 10 micromolar (MC4): + (Indicates inhibition greater than . . . 50%)
SST5 inhibition at 10 micromolar (SST5): + (Indicates inhibition greater than . . . 50%)

CSC1OC(COCc2ccccc2)C(O)C(OCc2ccc(Cl)cc2)C1NC(=O)CCN (centres unmarked) [Compound 145]
MC4 inhibition at 10 micromolar (MC4): + (Indicates inhibition greater than . . . 50%)
SST5 inhibition at 10 micromolar (SST5): + (Indicates inhibition greater than . . . 50%)

CSC1OC(COCc2ccccc2)C(O)C(OCc2ccc(Cl)cc2)C1NC(=O)CCNC(=N)N (centres unmarked) [Compound 146]
MC4 inhibition at 10 micromolar (MC4): + (Indicates inhibition greater than . . . 50%)
SST5 inhibition at 10 micromolar (SST5): + (Indicates inhibition greater than . . . 50%)

CSC1OC(COCc2ccccc2)C(O)C(OCc2ccc(Cl)cc2)C1NC(=O)CCCNC(=N)N (centres unmarked) [Compound 148]
MC4 inhibition at 10 micromolar (MC4): + (Indicates inhibition greater than . . . 50%)
SST5 inhibition at 10 micromolar (SST5): + (Indicates inhibition greater than . . . 50%)

CSC1OC(COCc2ccc(Cl)cc2)C(O)C(OCc2ccc(Cl)cc2)C1NC(=O)CNC(=N)N (centres unmarked) [Compound 150]
MC4 inhibition at 10 micromolar (MC4): + (Indicates inhibition greater than . . . 50%)
SST5 inhibition at 10 micromolar (SST5): + (Indicates inhibition greater than . . . 50%)

CSC1OC(COCc2ccc(Cl)cc2)C(O)C(OCc2ccc(Cl)cc2)C1NC(=O)CCN (centres unmarked) [Compound 151]
MC4 inhibition at 10 micromolar (MC4): + (Indicates inhibition greater than . . . 50%)
SST5 inhibition at 10 micromolar (SST5): + (Indicates inhibition greater than . . . 50%)

CSC1OC(COCc2ccc(Cl)cc2)C(O)C(OCc2ccc(Cl)cc2)C1NC(=O)CCNC(=N)N (centres unmarked) [Compound 152]
MC4 inhibition at 10 micromolar (MC4): + (Indicates inhibition greater than . . . 50%)
SST5 inhibition at 10 micromolar (SST5): + (Indicates inhibition greater than . . . 50%)

CSC1OC(COCc2ccc(Cl)cc2)C(O)C(OCc2ccc(Cl)cc2)C1NC(=O)CCCNC(=N)N (centres unmarked) [Compound 154]
MC4 inhibition at 10 micromolar (MC4): + (Indicates inhibition greater than . . . 50%)
SST5 inhibition at 10 micromolar (SST5): + (Indicates inhibition greater than . . . 50%)

CSC1OC(COCc2ccc(-c3ccccc3)cc2)C(O)C(OCc2ccc(Cl)cc2)C1NC(=O)CN (centres unmarked) [Compound 155]
MC4 inhibition at 10 micromolar (MC4): + (Indicates inhibition greater than . . . 50%)
SST5 inhibition at 10 micromolar (SST5): + (Indicates inhibition greater than . . . 50%)

CSC1OC(COCc2ccc(-c3ccccc3)cc2)C(O)C(OCc2ccc(Cl)cc2)C1NC(=O)CNC(=N)N (centres unmarked) [Compound 156]
MC4 inhibition at 10 micromolar (MC4): + (Indicates inhibition greater than . . . 50%)
SST5 inhibition at 10 micromolar (SST5): + (Indicates inhibition greater than . . . 50%)

CSC1OC(COCc2ccc(-c3ccccc3)cc2)C(O)C(OCc2ccc(Cl)cc2)C1NC(=O)CCN (centres unmarked) [Compound 157]
MC4 inhibition at 10 micromolar (MC4): + (Indicates inhibition greater than . . . 50%)
SST5 inhibition at 10 micromolar (SST5): + (Indicates inhibition greater than . . . 50%)

CSC1OC(COCc2ccc(-c3ccccc3)cc2)C(O)C(OCc2ccc(Cl)cc2)C1NC(=O)CCNC(=N)N (centres unmarked) [Compound 158]
MC4 inhibition at 10 micromolar (MC4): + (Indicates inhibition greater than . . . 50%)
SST5 inhibition at 10 micromolar (SST5): + (Indicates inhibition greater than . . . 50%)

CSC1OC(COCc2ccc(-c3ccccc3)cc2)C(O)C(OCc2ccc(Cl)cc2)C1NC(=O)CCCN (centres unmarked) [Compound 159]
MC4 inhibition at 10 micromolar (MC4): + (Indicates inhibition greater than . . . 50%)
SST5 inhibition at 10 micromolar (SST5): + (Indicates inhibition greater than . . . 50%)

CSC1OC(COCc2ccc(-c3ccccc3)cc2)C(O)C(OCc2ccc(Cl)cc2)C1NC(=O)CCCNC(=N)N (centres unmarked) [Compound 160]
MC4 inhibition at 10 micromolar (MC4): + (Indicates inhibition greater than . . . 50%)
SST5 inhibition at 10 micromolar (SST5): + (Indicates inhibition greater than . . . 50%)

CSC1OC(COCc2ccc3ccccc3c2)C(O)C(OCc2ccc(Cl)cc2)C1NC(=O)CN (centres unmarked) [Compound 161]
MC4 inhibition at 10 micromolar (MC4): + (Indicates inhibition greater than . . . 50%)
SST5 inhibition at 10 micromolar (SST5): + (Indicates inhibition greater than . . . 50%)

CSC1OC(COCc2ccc3ccccc3c2)C(O)C(OCc2ccc(Cl)cc2)C1NC(=O)CNC(=N)N (centres unmarked) [Compound 162]
MC4 inhibition at 10 micromolar (MC4): + (Indicates inhibition greater than . . . 50%)
SST5 inhibition at 10 micromolar (SST5): + (Indicates inhibition greater than . . . 50%)
